According to patent publication US20180051316A1, “DETECTION OF NUCLEIC ACID POLYMERASE CONFORMATIONAL CHANGES USING A NANOTUBE” (priority 2014, published 2018):
“And” between values parts separate entries of the source, which are not always exact repeats. Equal entries are not always repeated. “Also recorded” adds a separate entry of the source. Where two headings read alike, the source gives them in different places. Marks after values point to notes of the source that are not given here.

Legend:
[1] = molecular target: KF active site (Escherichia coli, UniProt P00582); conditions: inhibition of KF catalysis; cited from earlier work
[2] = molecular target: T1, KF (Escherichia coli, UniProt P00582, C907S/D355A/E357A/L790C); assay type: biochemical; conditions: 100 μM analog, 25° C., 2 h
T1 construct: Single copies of the Klenow Fragment (KF) of DNA polymerase I were attached to single-walled carbon nanotube devices; made in house; host or cells: E. coli BL21(DE3)
Protocol: Polymerization products with dNTP analogs and the A/T incorporation template (FIG. 8A) or the G/C incorporation template (FIG. 8B) were electrophoresed on a 5% high-resolution agarose gel. […] After visualization, the image colors were inverted, then changed to black and white.
Positive control reactions contained KF (1 μM), dNTPs or dNTP analogs (100 μM), and A/T or G/C incorporation template-primer (5 μM) in 10 mM Tris, 50 mM NaCl, 10 mM MgCl2, 1 mM DTT, pH 7.9. Reactions to test dNTP analog incorporation contained 100 μM analog in place of its native dNTP, and negative control reactions omitted either the analog or its native dNTP. Reactions were kept at 25° C. for 2 h in a thermal cycler before electrophoresis on a 5% high resolution agarose gel (FIG. 8B).

[3] = molecular target: T2, DNA polymerase I (Klenow Fragment) (Escherichia coli, UniProt P00582, C907S/D355A/E357A/L790C); assay type: biochemical; conditions: for k: k=(<τopen>+<τclosed>)^−1; for <τclosed> / <τopen>: native dNTP 10 μM, analog 100 μM, average ± standard deviation; for direction of current spike ΔI per base incorporation: KF processing poly(dA)42; for frequency of ΔI(t) excursions relative to dGTP: complementary template-primer; for τopen events deviating from the single exponential fit / τopen events encompassed by single exponential fit: poly(dC)42; for τopen events encompassed by single exponential fit: more than 50 s of polymerization data; for direction of ΔI(t) excursions: poly(dC)42 template; for time constant of second exponential fit to tail of τopen distribution: poly(dC)42 template (FIG. 3B)
T2 construct: Single copies of the Klenow Fragment (KF) of DNA polymerase I were attached to single-walled carbon nanotube devices; made in house; host or cells: E. coli BL21(DE3)
Protocol: In embodiments, SWCNT-FETs are fabricated and functionalized with a single-cysteine variant of exonuclease-deficient KF (D355A/E357A/L790C/C907S). […] Attachment of KF to SWCNT-FETs is accomplished by soaking the devices in a solution of N-(1-pyrenyl)maleimide (1 mM in ethanol, 30 min), followed by incubation with KF (300 nM KF in a standard KF activity buffer of 20 mM Tris, 50 mM NaCl, 10 mM MgCl2, 100 μM TCEP, pH 8.0). […] Such devices are referred to simply as KF nanocircuits.
In embodiments, homopolymeric templates poly(dA)42, poly(dT)42, poly(dG)42, or poly(dC)42 mixed with complementary dNTP analogs are used for detecting conformational change of a polymerase, e.g., DNA polymerase. In embodiments, each template is fused to an M13 priming site and mixed with an M13 forward primer in a 1:1 stoichiometric ratio; for hybridization, the mixture is heated in a thermal cycler to 95° C. for 5 to 10 min followed by cooling to 65° C. then further cooling with a gradient of 5° C. every five min until reaching room temperature. In embodiments, KF nanocircuits are immersed in activity buffer with the annealed template-primer at 100 nM concentrations. Native or analog dNTPs are added to the buffer in excess, ensuring Vmax conditions for KF catalysis.
In embodiments, measurements consist of monitoring the source-drain current, I(t), through the SWCNT-FET while the attached KF molecule interacted with its surrounding environment. […] In embodiments, I(t) fluctuations are amplified, digitized at 100 kHz, and stored as uninterrupted, 600 s. Between measurements, the KF nanocircuits may be rinsed twice with activity buffer, incubated in buffer for 5 min, then rinsed twice with buffer before introducing another nucleotide and template-primer.
SWCNT FETs were fabricated and functionalized with a single cysteine variant of exonuclease-deficient KF. […] [20,21]
For each measurement, dNTPs were chosen to complement the homopolymeric templates poly(dA)42, poly(dT)42, poly(dG)42, and poly(dC)42. Each template was fused to an M13 priming site and mixed with an M13 forward primer in a 1:1 stoichiometric ratio; for hybridization, the mixture was heated to 95° C. for 5 to 10 minutes followed by cooling to room temperature. SWCNT FETs were immersed in a standard DNA Pol I activity buffer (20 mM Tris, 50 mM NaCl, 10 mM MgCl2, 100 μM TCEP, pH 8.0) with the template-primer hybrid at 100 nM concentration. Native or analog dNTPs were added to the buffer in excess, ensuring Vmax conditions for KF.
Measurements consisted of monitoring the source-drain current I(t) of a SWCNT FET while the attached KF molecule interacted with its surrounding environment.

[4] = complementary homopolymeric template

T1 sequence (P00582 324-928 D355A/E357A/L790C/C907S): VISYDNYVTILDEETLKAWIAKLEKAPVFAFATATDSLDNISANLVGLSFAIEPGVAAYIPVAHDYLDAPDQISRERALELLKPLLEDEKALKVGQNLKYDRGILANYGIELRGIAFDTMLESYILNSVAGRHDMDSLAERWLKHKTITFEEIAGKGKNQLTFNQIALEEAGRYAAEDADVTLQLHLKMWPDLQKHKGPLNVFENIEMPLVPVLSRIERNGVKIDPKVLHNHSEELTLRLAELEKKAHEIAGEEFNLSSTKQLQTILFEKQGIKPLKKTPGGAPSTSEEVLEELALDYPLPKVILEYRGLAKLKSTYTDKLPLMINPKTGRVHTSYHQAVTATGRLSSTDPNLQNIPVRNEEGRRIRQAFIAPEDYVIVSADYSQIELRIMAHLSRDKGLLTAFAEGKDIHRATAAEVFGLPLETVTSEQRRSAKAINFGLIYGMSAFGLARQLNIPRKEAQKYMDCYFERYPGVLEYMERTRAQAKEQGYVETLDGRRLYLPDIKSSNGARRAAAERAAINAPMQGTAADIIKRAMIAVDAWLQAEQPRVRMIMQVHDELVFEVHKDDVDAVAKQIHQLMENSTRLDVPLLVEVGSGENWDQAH
T2 sequence (P00582 324-928 D355A/E357A/L790C/C907S): as above
Chain of KF active site (P00582 324-928): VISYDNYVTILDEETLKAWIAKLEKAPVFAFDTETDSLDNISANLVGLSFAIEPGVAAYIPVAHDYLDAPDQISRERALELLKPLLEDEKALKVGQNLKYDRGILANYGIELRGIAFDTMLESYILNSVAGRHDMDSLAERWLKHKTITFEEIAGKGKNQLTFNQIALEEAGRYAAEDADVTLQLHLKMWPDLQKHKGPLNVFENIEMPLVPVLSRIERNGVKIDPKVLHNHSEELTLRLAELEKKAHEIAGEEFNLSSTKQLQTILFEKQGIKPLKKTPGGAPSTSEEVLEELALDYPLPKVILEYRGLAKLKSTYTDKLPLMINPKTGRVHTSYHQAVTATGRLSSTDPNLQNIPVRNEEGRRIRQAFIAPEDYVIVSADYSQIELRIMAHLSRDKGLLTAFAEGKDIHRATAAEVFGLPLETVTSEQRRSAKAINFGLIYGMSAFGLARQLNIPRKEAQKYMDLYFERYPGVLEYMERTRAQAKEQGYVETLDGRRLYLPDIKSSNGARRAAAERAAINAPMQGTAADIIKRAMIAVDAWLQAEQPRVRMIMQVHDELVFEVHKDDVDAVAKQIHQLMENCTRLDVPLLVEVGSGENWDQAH

For `Cc1cn(C2CC(O)C(COP(O)(=S)OP(=O)(O)OP(=O)(O)O)O2)c(=O)[nH]c1=O` (single isomer, unassigned) [Rp diastereomer of α-thio-dTTP], the Ki [1] is listed as roughly 30 µM.
For `Nc1ccn([C@H]2C[C@H](O)[C@@H](COP(=O)(O)OP(=O)(O)OP(=O)(O)O)O2)c(=S)n1` [2-thio-dCTP], the “incorporation into dsDNA, native counterpart omitted” value (from here on “incorporation into dsDNA”) ([2]; G/C incorporation template) was “incorporated opposite the template base G”, the “enzyme closure time τclosed compared to native dNTPs” value [3, 4] was “no difference” and the “rate of incorporation compared with native dNTPs” value (“rate … compared with native dNTPs” below) [3, 4] was “slightly faster; also recorded: approximately the same”. For the same molecule, the k ([3]; template poly(dG)42) was 30.6 ± 1.2^b 1/s, the “<τclosed>” value ([3]; template poly(dG)42) was 0.41 ± 0.15^b ms and the “<τopen>” value ([3]; template poly(dG)42) was 32.3 ± 1.1^b ms.
With `Cc1cn([C@H]2C[C@H](O)[C@@H](COP(=O)(O)OP(=O)(O)OP(=O)(O)O)O2)c(=S)[nH]c1=O` [2-thio-dTTP, 2-thio-2′-deoxythimidine-5′-triphosphate] the “incorporation into dsDNA” value ([2]; A/T incorporation template) was “incorporated opposite the template base A”, the “direction of current spike ΔI per base incorporation” value [3] was “positive current spikes ΔI>0” and the “average KF processing rate k for dNTP incorporation” value (shortened to “average KF processing rate k”) [3, 4] was 16 s⁻¹. The “enzyme closure time τclosed compared to native dNTPs” value [3, 4] was “no difference”, the “rate … compared with native dNTPs” value [3, 4] was “slightly faster; also recorded: approximately the same” and the k ([3]; template poly(dA)42) was 16.3 ± 0.9^b 1/s. For the same molecule, the “<τclosed>” value ([3]; template poly(dA)42) was 0.23 ± 0.14^b ms and the “<τopen>” value ([3]; template poly(dA)42) was 61.1 ± 3.2^b ms.
For `Nc1nc(Cl)c2ncn([C@H]3C[C@H](O)[C@@H](COP(=O)(O)OP(=O)(O)OP(=O)(O)O)O3)c2n1` [6-Cl-2APTP, 2-amino-6-Cl-purine-2′-deoxyriboside-triphosphate], the “incorporation into dsDNA” value ([2]; A/T incorporation template) was “incorporated opposite the template base T”, the “incorporation into dsDNA” value ([2]; G/C incorporation template) was “incorporated opposite the template base C” and the “average KF processing rate k” value [3, 4] was 20 s⁻¹. For the same molecule, the “enzyme closure time τclosed compared to native dNTPs” value [3, 4] was “no difference”, the “rate … compared with native dNTPs” value [3, 4] was “compared most favorably to the slowest rates observed for native dGTP incorporation; also recorded: more quickly than native dATP” and the “τopen relative to native dNTP (times longer)” value [3, 4] was “about twice as long”. For the same molecule, the “frequency of ΔI(t) excursions relative to dGTP” value [3] was “two to three times less frequently”, the “direction of ΔI(t) current fluctuations” value ([3]; complementary template-primers) was “positive current fluctuations” and the “direction of current spikes” value ([3]; heterogeneous substrates, nucleotide mixtures (FIG. 5A, 5C)) was “positive current spikes”. The “direction of ΔI(t) signals” value ([3]; opposite both poly(dC)42 and poly(dT)42 templates) was “inverted amplitude”, the “rate of ΔI(t) excursions relative to dGTP” value ([3]; opposite poly(dC)42) was 80% and the “τopen events deviating from the single exponential fit” value [3] was “Approximately twenty-five percent”. For the same molecule, the “τopen events encompassed by single exponential fit” value (“τopen events encompassed” below) [3] was “≈ 75%”, the “direction of ΔI(t) excursions” value [3] was “Positive ΔI(t) excursions” and the “time constant of second exponential fit to tail of τopen distribution” value [3] was 200 ms. The k ([3]; template poly(dC)42) was 19.7 ± 0.6 s⁻¹, the “<τclosed>” value ([3]; template poly(dC)42) was 0.20 ± 0.12 ms and the “<τopen>” value ([3]; template poly(dC)42) was 50.5 ± 1.4 ms. The “<τopen>” value ([3]; template poly(dC)42, listed as 6-Cl-dGTP) was 50 ± 1 ms.
For `Nc1ncnc2c1ncn2[C@H]1C[C@H](O)[C@@H](COP(=O)(O)OP(=O)(O)OP(=O)(O)O)O1` [dATP], the k ([3]; template poly(dT)42) was 16.8 ± 0.4 s⁻¹, the “<τclosed>” value ([3]; template poly(dT)42) was 0.34 ± 0.18 ms and the “<τopen>” value ([3]; template poly(dT)42) was 58.9 ± 1.2 ms.
For `Nc1ccn([C@H]2C[C@H](O)[C@@H](COP(=O)(O)OP(=O)(O)OP(=O)(O)O)O2)c(=O)n1` [dCTP], the k ([3]; template poly(dG)42) was 23.2 ± 3.2 s⁻¹, the “<τclosed>” value ([3]; template poly(dG)42) was 0.35 ± 0.20 ms and the “<τopen>” value ([3]; template poly(dG)42) was 42.8 ± 5.0 ms.
For `Nc1nc2c(ncn2[C@H]2C[C@H](O)[C@@H](COP(=O)(O)OP(=O)(O)OP(=O)(O)O)O2)c(=O)[nH]1` [dGTP], the “average KF processing rate k” value [3, 4] was 41 s⁻¹, the “τopen events encompassed” value [3] was greater than 90% and the “direction of ΔI(t) excursions” value [3] was “negative ΔI(t) excursions”. The k ([3]; template poly(dC)42) was 24.3 ± 4.3 s⁻¹, the “<τclosed>” value ([3]; template poly(dC)42) was 0.40 ± 0.20 ms and the “<τopen>” value ([3]; template poly(dC)42) was 40.8 ± 6.0 ms.
With `Cc1cn([C@H]2C[C@H](O)[C@@H](COP(=O)(O)OP(=O)(O)OP(=O)(O)O)O2)c(=O)[nH]c1=O` [dTTP, deoxythymidine triphosphate] the “direction of current spike ΔI per base incorporation” value [3] was “negative current spike ΔI<0”, the k ([3]; template poly(dA)42) was 14.3 ± 0.5 s⁻¹ and the “<τclosed>” value ([3]; template poly(dA)42) was 0.33 ± 0.12 ms. The “<τopen>” value ([3]; template poly(dA)42) was 69.6 ± 2.3 ms.
With `Nc1ncnc2c1ncn2[C@H]1C[C@H](O)[C@@H](COP(O)(=S)OP(=O)(O)OP(=O)(O)O)O1` (stereo partly drawn) [α-thio-dATP] the “incorporation into dsDNA” value ([2]; A/T incorporation template) was “incorporated opposite the template base T”, the “effect of lower analog concentration on DNA polymerization” value ([3]; 10 μM analog instead of 100 μM, poly(dT)42 template) was “did not affect DNA polymerization” and the “average KF processing rate k” value [3, 4] was 7 s⁻¹. For the same molecule, the k ([3]; template poly(dT)42) was 6.8 ± 0.4 s⁻¹, the “<τclosed>” value ([3]; template poly(dT)42) was 0.38 ± 0.21 ms and the “<τopen>” value ([3]; template poly(dT)42) was 145 ms and 145.9 ± 8.4 ms.
With `Nc1ccn([C@H]2C[C@H](O)[C@@H](COP(O)(=S)OP(=O)(O)OP(=O)(O)O)O2)c(=O)n1` (stereo partly drawn) [α-thio-dCTP] the “incorporation into dsDNA” value ([2]; G/C incorporation template) was “incorporated opposite the template base G”, the “average KF processing rate k” value [3, 4] was 15 s⁻¹ and the k ([3]; template poly(dG)42) was 14.5 ± 1.0 s⁻¹. For the same molecule, the “<τclosed>” value ([3]; template poly(dG)42) was 0.33 ± 0.19 ms and the “<τopen>” value ([3]; template poly(dG)42) was 68.8 ± 4.6 ms.
With `Nc1nc2c(ncn2[C@H]2C[C@H](O)[C@@H](COP(O)(=S)OP(=O)(O)OP(=O)(O)O)O2)c(=O)[nH]1` (stereo partly drawn) [α-thio-dGTP] the “incorporation into dsDNA” value ([2]; G/C incorporation template) was “incorporated opposite the template base C”, the “average KF processing rate k” value [3, 4] was 15 s⁻¹ and the “increase of <τopen> relative to native dNTP” value [3, 4] was 56%. For the same molecule, the “τopen relative to native dNTP (times longer)” value [3, 4] was “approximately 2.5”, the “frequency of ΔI(t) excursions relative to dGTP” value [3] was “two to three times less frequently” and the “τopen events deviating from the single exponential fit” value [3] was “Approximately twenty-five percent”. The “τopen events encompassed” value [3] was “≈ 75%”, the “time constant of second exponential fit to tail of τopen distribution” value [3] was 200 ms and the k ([3]; template poly(dC)42) was 15.7 ± 0.7 s⁻¹. For the same molecule, the “<τclosed>” value ([3]; template poly(dC)42) was 0.21 ± 0.15 ms and the “<τopen>” value ([3]; template poly(dC)42) was 63 ± 3 ms and 63.6 ± 2.8 ms.
In the case of `Cc1cn([C@H]2C[C@H](O)[C@@H](COP(O)(=S)OP(=O)(O)OP(=O)(O)O)O2)c(=O)[nH]c1=O` (stereo partly drawn) [α-thio-dTTP], the “incorporation into dsDNA” value ([2]; A/T incorporation template) is reported as “incorporated opposite the template base A”, the “average KF processing rate k” value [3, 4] is reported as 7 s⁻¹ and the k ([3]; template poly(dA)42) is reported as 6.6 ± 0.3 s⁻¹. For the same molecule, the “<τclosed>” value ([3]; template poly(dA)42) was 0.29 ± 0.13 ms and the “<τopen>” value ([3]; template poly(dA)42) was 152.1 ± 6.6 ms.
